Test results taken from the supplement of paper PMC10307832.

Legend:
Experiment in all cases: relative viability (nuclei count vs DMSO), 5 days (fraction); higher = more cells survive
Axitinib + Trametinib = compound: CNC(=O)c1ccccc1Sc1ccc2c(/C=C/c3ccccn3)n[nH]c2c1 [Axitinib] + CC(=O)Nc1cccc(-n2c(=O)n(C3CC3)c(=O)c3c(Nc4ccc(I)cc4F)n(C)c(=O)c(C)c32)c1 [Trametinib] (partner 0.02 µM)
Method in brief: (§1)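 Dosing by pin tool came one day after lung cancer cell lines were seeded in 1536-well plates, using either one drug or a fixed anchor-drug dose plus five library-drug doses (not always all listed) in √10 steps. After 5 days, nuclei were counted on 4× images. Relative viability is treated-well nuclei count divided by vehicle-well nuclei count, and values are medians of duplicate plates.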

Bemcentinib + Alpelisib = compound: Nc1nc(Nc2ccc3c(c2)CC[C@@H](N2CCCC2)CC3)nn1-c1cc2c(nn1)-c1ccccc1CCC2 [Bemcentinib] + Cc1nc(NC(=O)N2CCC[C@H]2C(N)=O)sc1-c1ccnc(C(C)(C)C(F)(F)F)c1 [Alpelisib] (partner 2 µM)
Method in brief: as §1

[1] = compound: CC1=CC=C(C=C1)C(=O)CN2C3=C(CCCC3)SC2=N [Pifithrin_alpha] + C[C@@H](Oc1cc(-c2cnn(C3CCNCC3)c2)cnc1N)c1c(Cl)ccc(F)c1Cl [Crizotinib] (partner 1 µM)
Method in brief: as §1

Axitinib + Crizotinib = compound: CNC(=O)c1ccccc1Sc1ccc2c(/C=C/c3ccccn3)n[nH]c2c1 [Axitinib] + C[C@@H](Oc1cc(-c2cnn(C3CCNCC3)c2)cnc1N)c1c(Cl)ccc(F)c1Cl [Crizotinib] (partner 1 µM)
Method in brief: as §1

NCI-H650
relative viability (Axitinib + Trametinib; first compound 0.005 µM): 1.04
relative viability (Axitinib + Trametinib; first compound 0.01581 µM): 1
relative viability (Axitinib + Trametinib; first compound 0.05 µM): 0.893
relative viability (Axitinib + Trametinib; first compound 0.1581 µM): 0.869
relative viability (Axitinib + Trametinib; first compound 0.5 µM): 1.06
relative viability (Bemcentinib + Alpelisib; first compound 0.04 µM): 1.01
relative viability (Bemcentinib + Alpelisib; first compound 0.1265 µM): 1.38
relative viability (Bemcentinib + Alpelisib; first compound 0.4 µM): 1.22
relative viability (Bemcentinib + Alpelisib; first compound 1.265 µM): 0.974
relative viability (Bemcentinib + Alpelisib; first compound 4 µM): 1.06
relative viability ([1]; first compound 3.162 µM): 0.671
relative viability ([1]; first compound 10 µM): 0.659
relative viability ([1]; first compound 31.62 µM): 0.434
relative viability ([1]; first compound 100 µM): 0.743
relative viability (Axitinib + Crizotinib; first compound 0.005 µM): 0.859
relative viability (Axitinib + Crizotinib; first compound 0.01581 µM): 0.745
relative viability (Axitinib + Crizotinib; first compound 0.05 µM): 0.779
relative viability (Axitinib + Crizotinib; first compound 0.1581 µM): 0.782
relative viability (Axitinib + Crizotinib; first compound 0.5 µM): 0.903
